Key:
[1] = system: BG-1 human ovarian cancer cells; experiment: Inhibition of growth of BG-1 ovarian cancer cells (MTT), with MacSynergy II synergy analysis; assay type: cell-based; details: for Antagonsim / Synergy: BG-1, antiestrogen in combination with CCI-779, MacSynergy II, Bliss independence model; for Percent Inhibition: CCI-779 0 nM
Procedure: In these test procedures, rapamycin 42-ester with 3-hydroxy-2-(hydroxymethyl)-2-methylpropionic acid was used as a representative rapamycin, and 2-(4-hydroxy-phenyl)-3-methyl-1-[4-(2-piperdin-1-yl-ethoxy)-benzyl-1 H-indol-5-ol, raloxifene, and 4-hydroxytamoxifen were used as representative antiestrogens.
One day before the experiment, cells were plated in 96-well plates at a cell density of 2,500 cells/well in IMEM medium supplemented with 10% fetal bovine serum. The next day, cells were treated with various concentrations of antiestrogen and rapamycin 42-ester with 3-hydroxy-2-(hydroxymethyl)-2-methylpropionic acid (referred to as CCI-779 in the tables below). Five or six-days later, cell growth was monitored.

[2] = system: MCF-7 human breast cancer cells; experiment: Inhibition of growth of MCF-7 breast cancer cells (MTT), with MacSynergy II synergy analysis; details: for Antagonsim / Synergy: MCF-7, antiestrogen in combination with CCI-779, MacSynergy II, Bliss independence model; for synergy of growth inhibition (in words): MCF-7 cells, in combination with CCI-779;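 as to all read-outs here: cells treated five or six days with single agents or combinations, growth read by MTT, synergy surface equals observed % inhibition minus Bliss additive prediction, values under 0% signal antagonism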
Procedure: MCF-7 human breast cancer cells were maintained at 37° C. in a humidified atmosphere of 5% CO2 and 95% air in IMEM medium supplemented with 10% fetal bovine serum. […] One day before the experiment, cells were plated in 96-well plates at a cell density of 2,500 cells/well in IMEM medium supplemented with 10% fetal bovine serum. The next day, cells were treated with various concentrations of antiestrogen and rapamycin 42-ester with 3-hydroxy-2-(hydroxymethyl)-2-methylpropionic acid (referred to as CCI-779 in the tables below). Five or six-days later, cell growth was monitored. MTT solution (20 ul) (0.5 mg/ml) was added to each well and cells were incubated for an additional 4 h. The solution was then removed and 150 ul of DMSO added. The intensity of dark blue color corresponding to number of cells was read at 540 nm with an automated plate reader.
Briefly, theoretical additive interactions were calculated from the dose-response curves of each individual drug based on Bliss independence model. The calculated additive surface was then subtracted from the experimental surface to obtain a synergy surface representing % inhibition above the calculated additive value-synergy index. […] Likewise, any peak below the 0% plane is indicative of antagonism.

O=C(c1ccc(OCCN2CCCCC2)cc1)c1c(-c2ccc(O)cc2)sc2cc(O)ccc12 [RAL, raloxifene, reference compound]
Antagonsim [1]: −1.8 μM^2%
Synergy [1]: 40.3 μM^2%
Percent Inhibition ([1]; Table I, Raloxifene 0.25 nM): 0.74%
Percent Inhibition ([1]; Table I, Raloxifene 0.5 nM): −3.32%
Percent Inhibition ([1]; Table I, Raloxifene 1 nM): 7.79%
Percent Inhibition ([1]; Table I, Raloxifene 2 nM): 9.85%
Percent Inhibition ([1]; Table I, Raloxifene 3 nM): 11.5%
Percent Inhibition ([1]; Table I, Raloxifene 4 nM): 14.49%
Percent Inhibition ([1]; Table I, Raloxifene 5 nM): 14.04%
Antagonsim [2]: 0.0 μM^2%
Synergy [2]: 113.0 μM^2%
synergy of growth inhibition (in words) [2]: synergistic inhibition
Percent Inhibition ([2]; Table C, CCI-779 0 nM, Raloxifene 0.25 nM): −1.4%
Percent Inhibition ([2]; Table C, CCI-779 0 nM, Raloxifene 0.5 nM): −5.17%
Percent Inhibition ([2]; Table C, CCI-779 0 nM, Raloxifene 1 nM): 17.3%
Percent Inhibition ([2]; Table C, CCI-779 0 nM, Raloxifene 2 nM): 36.78%
Percent Inhibition ([2]; Table C, CCI-779 0 nM, Raloxifene 3 nM): 42.4%
Percent Inhibition ([2]; Table C, CCI-779 0 nM, Raloxifene 4 nM): 50.49%
Percent Inhibition ([2]; Table C, CCI-779 0 nM, Raloxifene 5 nM): 50.5%

CCC(=C(c1ccc(O)cc1)c1ccc(OCCN(C)C)cc1)c1ccccc1 [TAM, 4-hydroxytamoxifen, reference compound]
Antagonsim [1]: 0.0 μM^2%
Synergy [1]: 0.3 μM^2%
Percent Inhibition ([1]; Table H, 4-Hydroxytamoxifen 5 nM): 23.99%
Percent Inhibition ([1]; Table H, 4-Hydroxytamoxifen 10 nM): 21.39%
Percent Inhibition ([1]; Table H, 4-Hydroxytamoxifen 20 nM): 35.05%
Percent Inhibition ([1]; Table H, 4-Hydroxytamoxifen 30 nM): 36.43%
Percent Inhibition ([1]; Table H, 4-Hydroxytamoxifen 40 nM): 39.51%
Percent Inhibition ([1]; Table H, 4-Hydroxytamoxifen 50 nM): 47.73%
Percent Inhibition ([1]; Table H, 4-Hydroxytamoxifen 100 nM): 50%
Antagonsim [2]: 0.0 μM^2%
Synergy [2]: 77.00 μM^2%
synergy of growth inhibition (in words) [2]: synergistic inhibition
Percent Inhibition ([2]; Table B, CCI-779 0 nM, 4-Hydroxytamoxifen 5 nM): 20.44%
Percent Inhibition ([2]; Table B, CCI-779 0 nM, 4-Hydroxytamoxifen 10 nM): 22.75%
Percent Inhibition ([2]; Table B, CCI-779 0 nM, 4-Hydroxytamoxifen 20 nM): 39.85%
Percent Inhibition ([2]; Table B, CCI-779 0 nM, 4-Hydroxytamoxifen 30 nM): 41.46%
Percent Inhibition ([2]; Table B, CCI-779 0 nM, 4-Hydroxytamoxifen 40 nM): 39.09%
Percent Inhibition ([2]; Table B, CCI-779 0 nM, 4-Hydroxytamoxifen 50 nM): 47.19%
Percent Inhibition ([2]; Table B, CCI-779 0 nM, 4-Hydroxytamoxifen 100 nM): 36.99%
Percent Inhibition ([2]; Table F, 4-Hydroxytamoxifen 0 nM + 4-Hydroxytamoxifen 5 nM): 25.02%
Percent Inhibition ([2]; Table F, 4-Hydroxytamoxifen 0 nM + 4-Hydroxytamoxifen 10 nM): 37.37%
Percent Inhibition ([2]; Table F, 4-Hydroxytamoxifen 0 nM + 4-Hydroxytamoxifen 20 nM): 44.9%
Percent Inhibition ([2]; Table F, 4-Hydroxytamoxifen 0 nM + 4-Hydroxytamoxifen 30 nM): 42.42%
Percent Inhibition ([2]; Table F, 4-Hydroxytamoxifen 0 nM + 4-Hydroxytamoxifen 40 nM): 46.46%
Percent Inhibition ([2]; Table F, 4-Hydroxytamoxifen 0 nM + 4-Hydroxytamoxifen 50 nM): 45.78%
Percent Inhibition ([2]; Table F, 4-Hydroxytamoxifen 0 nM + 4-Hydroxytamoxifen 100 nM): 49.99%
Percent Inhibition ([2]; Table F, 4-Hydroxytamoxifen 5 nM + 4-Hydroxytamoxifen 0 nM): 12.73%
Percent Inhibition ([2]; Table F, 4-Hydroxytamoxifen 5 nM + 4-Hydroxytamoxifen 5 nM): 37.12%
Percent Inhibition ([2]; Table F, 4-Hydroxytamoxifen 5 nM + 4-Hydroxytamoxifen 10 nM): 49.04%
Percent Inhibition ([2]; Table F, 4-Hydroxytamoxifen 5 nM + 4-Hydroxytamoxifen 20 nM): 50.12%
Percent Inhibition ([2]; Table F, 4-Hydroxytamoxifen 5 nM + 4-Hydroxytamoxifen 30 nM): 50.39%
Percent Inhibition ([2]; Table F, 4-Hydroxytamoxifen 5 nM + 4-Hydroxytamoxifen 40 nM): 54.19%
Percent Inhibition ([2]; Table F, 4-Hydroxytamoxifen 5 nM + 4-Hydroxytamoxifen 50 nM): 53.75%
Percent Inhibition ([2]; Table F, 4-Hydroxytamoxifen 5 nM + 4-Hydroxytamoxifen 100 nM): 59.23%
Percent Inhibition ([2]; Table F, 4-Hydroxytamoxifen 10 nM + 4-Hydroxytamoxifen 0 nM): 27.87%
Percent Inhibition ([2]; Table F, 4-Hydroxytamoxifen 10 nM + 4-Hydroxytamoxifen 5 nM): 47.71%
Percent Inhibition ([2]; Table F, 4-Hydroxytamoxifen 10 nM + 4-Hydroxytamoxifen 10 nM): 47.11%
Percent Inhibition ([2]; Table F, 4-Hydroxytamoxifen 10 nM + 4-Hydroxytamoxifen 20 nM): 45.86%
Percent Inhibition ([2]; Table F, 4-Hydroxytamoxifen 10 nM + 4-Hydroxytamoxifen 30 nM): 47.6%
Percent Inhibition ([2]; Table F, 4-Hydroxytamoxifen 10 nM + 4-Hydroxytamoxifen 40 nM): 53.22%
Percent Inhibition ([2]; Table F, 4-Hydroxytamoxifen 10 nM + 4-Hydroxytamoxifen 50 nM): 56.54%
Percent Inhibition ([2]; Table F, 4-Hydroxytamoxifen 10 nM + 4-Hydroxytamoxifen 100 nM): 58.11%
Percent Inhibition ([2]; Table F, 4-Hydroxytamoxifen 50 nM + 4-Hydroxytamoxifen 0 nM): 39.46%
Percent Inhibition ([2]; Table F, 4-Hydroxytamoxifen 50 nM + 4-Hydroxytamoxifen 5 nM): 48.51%
Percent Inhibition ([2]; Table F, 4-Hydroxytamoxifen 50 nM + 4-Hydroxytamoxifen 10 nM): 51.71%
Percent Inhibition ([2]; Table F, 4-Hydroxytamoxifen 50 nM + 4-Hydroxytamoxifen 20 nM): 46.36%
Percent Inhibition ([2]; Table F, 4-Hydroxytamoxifen 50 nM + 4-Hydroxytamoxifen 30 nM): 42.54%
Percent Inhibition ([2]; Table F, 4-Hydroxytamoxifen 50 nM + 4-Hydroxytamoxifen 40 nM): 48.3%
Percent Inhibition ([2]; Table F, 4-Hydroxytamoxifen 50 nM + 4-Hydroxytamoxifen 50 nM): 50.98%
Percent Inhibition ([2]; Table F, 4-Hydroxytamoxifen 50 nM + 4-Hydroxytamoxifen 100 nM): 58.57%
Percent Inhibition ([2]; Table F, 4-Hydroxytamoxifen 100 nM + 4-Hydroxytamoxifen 0 nM): 46.41%
Percent Inhibition ([2]; Table F, 4-Hydroxytamoxifen 100 nM + 4-Hydroxytamoxifen 5 nM): 52.37%
Percent Inhibition ([2]; Table F, 4-Hydroxytamoxifen 100 nM + 4-Hydroxytamoxifen 10 nM): 50.34%
Percent Inhibition ([2]; Table F, 4-Hydroxytamoxifen 100 nM + 4-Hydroxytamoxifen 20 nM): 47.64%
Percent Inhibition ([2]; Table F, 4-Hydroxytamoxifen 100 nM + 4-Hydroxytamoxifen 30 nM): 48.22%
Percent Inhibition ([2]; Table F, 4-Hydroxytamoxifen 100 nM + 4-Hydroxytamoxifen 40 nM): 51.79%
Percent Inhibition ([2]; Table F, 4-Hydroxytamoxifen 100 nM + 4-Hydroxytamoxifen 50 nM): 55.29%
Percent Inhibition ([2]; Table F, 4-Hydroxytamoxifen 100 nM + 4-Hydroxytamoxifen 100 nM): 61.34%
Percent Inhibition ([2]; Table F, 4-Hydroxytamoxifen 200 nM + 4-Hydroxytamoxifen 0 nM): 45.75%
Percent Inhibition ([2]; Table F, 4-Hydroxytamoxifen 200 nM + 4-Hydroxytamoxifen 5 nM): 54.54%
Percent Inhibition ([2]; Table F, 4-Hydroxytamoxifen 200 nM + 4-Hydroxytamoxifen 10 nM): 51.06%
Percent Inhibition ([2]; Table F, 4-Hydroxytamoxifen 200 nM + 4-Hydroxytamoxifen 20 nM): 52%
Percent Inhibition ([2]; Table F, 4-Hydroxytamoxifen 200 nM + 4-Hydroxytamoxifen 30 nM): 49.75%
Percent Inhibition ([2]; Table F, 4-Hydroxytamoxifen 200 nM + 4-Hydroxytamoxifen 40 nM): 59.13%
Percent Inhibition ([2]; Table F, 4-Hydroxytamoxifen 200 nM + 4-Hydroxytamoxifen 50 nM): 59.05%
Percent Inhibition ([2]; Table F, 4-Hydroxytamoxifen 200 nM + 4-Hydroxytamoxifen 100 nM): 61.13%
Percent Inhibition ([2]; Table F, 4-Hydroxytamoxifen 400 nM + 4-Hydroxytamoxifen 0 nM): 48.85%
Percent Inhibition ([2]; Table F, 4-Hydroxytamoxifen 400 nM + 4-Hydroxytamoxifen 5 nM): 52.28%
Percent Inhibition ([2]; Table F, 4-Hydroxytamoxifen 400 nM + 4-Hydroxytamoxifen 10 nM): 58.29%
Percent Inhibition ([2]; Table F, 4-Hydroxytamoxifen 400 nM + 4-Hydroxytamoxifen 20 nM): 56.61%
Percent Inhibition ([2]; Table F, 4-Hydroxytamoxifen 400 nM + 4-Hydroxytamoxifen 30 nM): 57.28%
Percent Inhibition ([2]; Table F, 4-Hydroxytamoxifen 400 nM + 4-Hydroxytamoxifen 40 nM): 59.68%
Percent Inhibition ([2]; Table F, 4-Hydroxytamoxifen 400 nM + 4-Hydroxytamoxifen 50 nM): 67.28%
Percent Inhibition ([2]; Table F, 4-Hydroxytamoxifen 400 nM + 4-Hydroxytamoxifen 100 nM): 64.92%

Reference: patent US20020045638A1, “Method of treating estrogen receptor positive carcinoma” (priority 2000, published 2002)
